Assay results published in patent US20240165281A1, “DUAL MODE RADIOTRACER AND THERAPEUTICS” (Technische Universität München, priority 2021, published 2024).

Tests used:
[1] = tested on: LNCaP tumor-bearing male CB-17 SCID mice; assay: Biodistribution studies 24 h p.i.
Description: Approximately 3-7 MBq (0.1-0.2 nmol) of the radioactive-labelled PSMA inhibitors were injected into the tail vein of LNCaP tumor-bearing male CB-17 SCID mice and sacrificed after 24 h post injection. Selected organs were removed, weighted and measured in a γ-counter. Results are all decay corrected and given in % injected dose per gram of tissue (% iD/g). Tumor-to-organ ratios are calculated from animals' individual ratios and are given as mean±standard deviation.

[2] = Octanol-water partition coefficient (log D7.4); format: physicochemical; details: PBS pH 7.4 / n-octanol, 177Lu-labelled
Description: Octanol-Water Partition Coefficient (log D7.4)
Approximately 1 MBq of the labelled tracer was dissolved in 1 mL of a 1:1 mixture (v/v) of PBS (pH 7.4) and n-octanol in a reaction vial (1.5 mL). After vigorous mixing of the suspension for 3 minutes at room temperature, the vial was centrifuged at 15000 g for 3 minutes (Biofuge 15, Heraus Sepatech, Osterode, Germany) and 100 μL aliquots of both layers were measured in a gamma counter. The experiment was repeated at least six times.

[3] = biological target: T1, Human Serum Albumin (HSA) (Homo sapiens, UniProt P02768); assay: Human serum albumin (HSA) binding by high performance affinity chromatography (HPAC); format: in vitro ADME; details: Chiralpak HSA column
T1 construct: purchased Daicel H13H-2433
Description: Determination of Human Serum Albumin (HSA) Binding by High Performance Affinity Chromatography (HPAC)
HSA binding of the PSMA-addressing ligands was determined according to a previously published procedure via HPLC (Valko, K.; Nunhuck, S.; Bevan, C.; Abraham, M. H.; Reynolds, D. P. Journal of pharmaceutical sciences 2003, 92, 2236-2248). A Chiralpak HSA column (50×3 mm, 5 μm, H13H-2433, Daicel, Tokyo, Japan) was used at a constant flow rate of 0.5 mL/min at rt. Mobile phase A was a freshly prepared 50 mM aqueous solution of NH4OAc (pH 6.9) and mobile phase B was isopropanol (HPLC grade, VWR). The applied gradient for all experiments was 100% A (0 to 3 min), followed by 80% A (3 to 40 min). Prior to the experiment, the column was calibrated using nine reference substances with a HSA binding, known from literature, in the range of 13 to 99% (Valko, K.; Nunhuck, S.; Bevan, C.; Abraham, M. H.; Reynolds, D. P. Journal of pharmaceutical sciences 2003, 92, 2236-2248; Yamazaki, K.; Kanaoka, M. Journal of Pharmaceutical sciences 2004, 93, 1480-1494). All substances, including the examined PSMA ligands, were dissolved in a 1:1 mixture (v/v) of isopropanol and a 50 mM aqueous solution of NH4OAc (pH6.9) with a final concentration of 0.5 mg/mL. Non-linear regression was established with the OriginPro 2016G software (Northampton, United States) (FIG. 8).

LNCaP tumor-bearing mice = assay: μSPECT/CT imaging with tumor uptake; format: in vivo
Description: Static images were recorded of sacrificed mice, 24 h p.i. directly after blood collection, with an acquisition time of 45 min using the HE-GP-RM collimator and a step-wise multi-planar bed movement. For imaging studies, a MILabs VECTor4 small-animal SPECT/PET/OI/CT from MILabs (Utrecht, Netherlands) was applied. Furthermore, data were reconstructed using the MILabs-Rec software (version 10.02) and a pixel-based Similarity-Regulated Ordered Subsets Expectation Maximization (SROSEM) algorithm with a window-based scatter correction (20% below and 20% above the photopeak, respectively). Moreover, further data analysis was accomplished using the PMOD4.0 software acquired from PMOD TECHNOLOGIES LLC (Zurich, Switzerland) at defined settings (voxel size CT: 80 μm, voxel size SPECT: 0.8 mm, 1.6 mm (FWHM) Gaussian blurring post processing filter, with calibration factor in kBq/mL and decay correction and no attenuation correction).

[4] = Apparent molecular weight (MWapp)
[5] = mean, listed as [^177Lu]Lu-2C013

T1 sequence (P02768 25-609): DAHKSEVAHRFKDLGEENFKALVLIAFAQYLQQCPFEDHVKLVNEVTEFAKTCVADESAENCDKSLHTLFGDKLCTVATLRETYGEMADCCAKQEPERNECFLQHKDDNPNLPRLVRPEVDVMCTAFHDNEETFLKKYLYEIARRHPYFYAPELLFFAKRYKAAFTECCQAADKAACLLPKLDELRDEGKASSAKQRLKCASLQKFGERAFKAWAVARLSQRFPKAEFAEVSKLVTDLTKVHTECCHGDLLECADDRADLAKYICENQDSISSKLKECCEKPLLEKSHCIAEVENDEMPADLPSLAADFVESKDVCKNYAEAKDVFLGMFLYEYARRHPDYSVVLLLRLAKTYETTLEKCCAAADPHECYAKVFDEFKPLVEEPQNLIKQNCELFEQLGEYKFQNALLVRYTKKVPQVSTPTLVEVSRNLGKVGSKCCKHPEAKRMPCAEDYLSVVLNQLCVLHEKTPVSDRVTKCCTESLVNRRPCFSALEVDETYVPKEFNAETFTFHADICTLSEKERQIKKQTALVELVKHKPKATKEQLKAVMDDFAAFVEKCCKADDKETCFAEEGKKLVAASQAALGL

CC(C)(C)[Si](F)(c1ccc(C(=O)NC[C@@H](NC(=O)CN2CCN(CC(=O)O)CCN(CC(=O)O)CCN(CC(=O)O)CC2)C(=O)N[C@H](CO)C(=O)NCCC(=O)NCCC(=O)NCCC[C@@H](NC(=O)CC[C@H](NC(=O)N[C@@H](CCC(=O)O)C(=O)O)C(=O)O)C(=O)O)cc1)C(C)(C)C [Compound 2C013]
Kidneys (24 h) ([1]; Table 1): 0.95 ± 0.42 % iD/g
Tumor (24 h) ([1]; Table 1): 7.59 ± 1.23 % iD/g
In vivo biodistribution (24 h p.i.) blood ([1]; Table 6): 0.0013 ± 0.0007 % iA/g
In vivo biodistribution (24 h p.i.) kidney ([1]; Table 6): 0.95 ± 0.42 % iA/g
In vivo biodistribution (24 h p.i.) tumor ([1]; Table 6): 7.59 ± 1.23 % iA/g
uptake in adrenals ([1]; mean): 0.0618 % iD/g
uptake in blood ([1]; mean): 0.0013 % iD/g
uptake in intestine ([1]; mean): 0.3354 % iD/g
uptake in kidney ([1]; mean): 0.9488 % iD/g
uptake in liver ([1]; mean): 0.2519 % iD/g
uptake in lung ([1]; mean): 0.0438 % iD/g
uptake in pancreas ([1]; mean): 0.0165 % iD/g
uptake in parotid gl. ([1]; mean): 0.0554 % iD/g
uptake in spleen ([1]; mean): 0.3891 % iD/g
uptake in stomach ([1]; mean): 0.0846 % iD/g
uptake in tumor ([1]; mean): 7.5897 % iD/g
uptake in bone ([1]; mean, listed as [^177Lu]2C013): 0.037 % iD/g
uptake in heart ([1]; mean, listed as [^177Lu]2C013): 0.019 % iD/g
uptake in muscle ([1]; mean, listed as [^177Lu]2C013): 0.004 % iD/g
uptake in submand. gl. ([1]; mean, listed as [^177Lu]2C013): 0.036 % iD/g
uptake in bone [1, 5]: 0.0370 % iD/g
uptake in heart [1, 5]: 0.0190 % iD/g
uptake in muscle [1, 5]: 0.0040 % iD/g
uptake in submand. gl. [1, 5]: 0.0360 % iD/g
tumor-to-organ ratio adrenals ([1]; n = 4, mean): 131.27
tumor-to-organ ratio blood ([1]; n = 4, mean): 6891.48
tumor-to-organ ratio bone ([1]; n = 4, mean): 208.29
tumor-to-organ ratio heart ([1]; n = 4, mean): 403.61
tumor-to-organ ratio intestine ([1]; n = 4, mean): 60.29
tumor-to-organ ratio kidney ([1]; n = 4, mean): 9.04
tumor-to-organ ratio liver ([1]; n = 4, mean): 31.82
tumor-to-organ ratio lung ([1]; n = 4, mean): 189.80
tumor-to-organ ratio muscle ([1]; n = 4, mean): 2075.70
tumor-to-organ ratio pancreas ([1]; n = 4, mean): 492.10
tumor-to-organ ratio parotid gl. ([1]; n = 4, mean): 140.11
tumor-to-organ ratio spleen ([1]; n = 4, mean): 21.03
tumor-to-organ ratio stomach ([1]; n = 4, mean): 145.92
tumor-to-organ ratio submand. gl. ([1]; n = 4, mean): 211.04
Activity accumulation adrenals ([1]; repeated dataset, n = 5, mean): 0.1327 % ID/g
Activity accumulation blood ([1]; repeated dataset, n = 5, mean): 0.0016 % ID/g
Activity accumulation bone ([1]; repeated dataset, n = 5, mean): 0.1331 % ID/g
Activity accumulation heart ([1]; repeated dataset, n = 5, mean): 0.023 % ID/g
Activity accumulation intestine ([1]; repeated dataset, n = 5, mean): 0.0615 % ID/g
Activity accumulation kidney ([1]; repeated dataset, n = 5, mean): 1.0833 % ID/g
Activity accumulation liver ([1]; repeated dataset, n = 5, mean): 0.3202 % ID/g
Activity accumulation lung ([1]; repeated dataset, n = 5, mean): 0.0548 % ID/g
Activity accumulation muscle ([1]; repeated dataset, n = 5, mean): 0.0056 % ID/g
Activity accumulation pancreas ([1]; repeated dataset, n = 5, mean): 0.0173 % ID/g
Activity accumulation parotid gl. ([1]; repeated dataset, n = 5, mean): 0.063 % ID/g
Activity accumulation spleen ([1]; repeated dataset, n = 5, mean): 0.4246 % ID/g
Activity accumulation stomach ([1]; repeated dataset, n = 5, mean): 0.0349 % ID/g
Activity accumulation submand. gl. ([1]; repeated dataset, n = 5, mean): 0.038 % ID/g
Activity accumulation tumor ([1]; repeated dataset, n = 5, mean): 10.1512 % ID/g
tumor-to-organ ratio adrenals ([1]; repeated dataset, n = 5, mean): 78.58
tumor-to-organ ratio blood ([1]; repeated dataset, n = 5, mean): 6950.64
tumor-to-organ ratio bone ([1]; repeated dataset, n = 5, mean): 73.24
tumor-to-organ ratio heart ([1]; repeated dataset, n = 5, mean): 475.05
tumor-to-organ ratio intestine ([1]; repeated dataset, n = 5, mean): 263.86
tumor-to-organ ratio kidney ([1]; repeated dataset, n = 5, mean): 9.48
tumor-to-organ ratio liver ([1]; repeated dataset, n = 5, mean): 31.51
tumor-to-organ ratio lung ([1]; repeated dataset, n = 5, mean): 184.32
tumor-to-organ ratio muscle ([1]; repeated dataset, n = 5, mean): 1867.35
tumor-to-organ ratio pancreas ([1]; repeated dataset, n = 5, mean): 587.5
tumor-to-organ ratio parotid gl. ([1]; repeated dataset, n = 5, mean): 172.33
tumor-to-organ ratio spleen ([1]; repeated dataset, n = 5, mean): 25.43
tumor-to-organ ratio stomach ([1]; repeated dataset, n = 5, mean): 286.18
tumor-to-organ ratio submand. gl. ([1]; repeated dataset, n = 5, mean): 270.92
T/K-ratio ([1]; tumor/kidney, Table 1): 9.04 ± 3.09
logD7.4 [2]: −3.30 ± 0.06
HSA (HPAC) [3]: 88.6%
kidney uptake (FIG. 5, in words) (LNCaP tumor-bearing mice; 24 h p.i., versus [177Lu]rhPSMA-7.3 and [177Lu]PSMA-I&T): lower kidney uptake than the previously known compounds
tumor uptake of the scanned mouse (FIG. 1) (LNCaP tumor-bearing mice; μSPECT/CT scan, single animal): 9.8 % iD/g
MWapp [4]: 17.6 kDa
